≈ marks a conversion by molar mass, not a printed value.
Key:
[1] = test system: C. albicans; assay: Antibiotic activity, MIC; assay type: cell-based; settings: Candida albicans
[2] = test system: E. Coli; assay: Antibiotic activity, MIC; assay type: cell-based; settings: Escherichia coli
[3] = test system: S. aureus; assay: Antibiotic activity, MIC; assay type: cell-based; settings: Staphylococcus aureus
[4] = test system: chick embryo; assay: Chick embryo diss. assay (Table II); assay type: in vivo
Protocol: Using the chick embryo vitelline capillaries assay, compounds were tested for their ability to induce capillary regression. Each compound was applied in 0.1 ml of 15% Ficol 400 and PBS onto the embryo, and vascular regression was assessed after 60 minutes.

[5] = test system: Xenopus tadpoles; assay: Tadpole assay; settings: Xenopus tadpole assay

| SMILES | MIC [1] [µg/mL] | MIC [2] [µg/mL] | MIC [3] [µg/mL] | Minimum Effective Concentration, chick embryo diss. assay [4] [µg] | functional similarity in tadpole assay [5] |
| --- | --- | --- | --- | --- | --- |
| CC(C)CCCC(C)[C@H]1CCC2C3C(CC[C@@]21C)[C@@]1(C)CC[C@H](NCCCNCCCCN)C[C@@H]1C[C@H]3O (stereo partly shown) [drawing 57] | 2 (≈ 3.76 µM) | 64 (≈ 120 µM) | 4 (≈ 7.52 µM) | – | – |
| COC(=O)CCC(C)[C@H]1CCC2C3C(CC[C@@]21C)[C@@]1(C)CCC(NCCCNCCCCNCCCN)C[C@@H]1C[C@H]3O (stereo partly shown) | – | – | – | > 10 | – |
| COC(=O)CC[C@@H](C)[C@H]1CC[C@H]2[C@@H]3[C@H](O)C[C@@H]4C[C@H](NCCN)CC[C@]4(C)[C@H]3CC[C@]12C [Compound 410] | – | – | – | – | functionally similar to compound 1437 |
| COC(=O)CC[C@@H](C)[C@H]1CC[C@H]2[C@@H]3C[C@@H](O)[C@H]4C[C@@H](NCCCNCCCCNCCCN)CC[C@]4(C)[C@H]3CC[C@]12C [Compound 466] | – | – | – | – | pharmacologic activity similar to that seen for FX 3 |
| CC(C)CCCC(C)[C@H]1CCC2C3C(CC[C@@]21C)[C@@]1(C)CC[C@H](N)C[C@@H]1C[C@H]3O (stereo partly shown) [drawing 55] | 2 (≈ 4.95 µM) | > 256 | 2 (≈ 4.95 µM) | – | – |
| CC(CCC(=O)O)[C@H]1CCC2C3C(CC[C@@]21C)[C@@]1(C)CC[C@@H](NCCCNCCCCNCCCN)C[C@H]1C[C@H]3O (stereo partly shown) [drawing 61] | 8 (≈ 13.9 µM) | 64 (≈ 111 µM) | 8 (≈ 13.9 µM) | – | – |
| CC(C)CCC[C@@H](C)[C@H]1CC[C@H]2[C@@H]3CC[C@H]4C[C@H](NCCCNCCCCNCCCN)CC[C@]4(C)[C@H]3CC[C@]12C | – | – | – | > 10 | – |
| COC(=O)CCC(C)[C@H]1CCC2C3C[C@@H](O)[C@H]4C[C@@H](NCCCNCCCCNCCCN)CC[C@]4(C)C3CC[C@@]21C (stereo partly shown) [drawing 101] | – | – | – | 1 | – |
| COC(=O)CCC(C)[C@H]1CCC2C3C(CC[C@@]21C)[C@@]1(C)CC[C@H](NCCN)C[C@H]1C[C@H]3O (stereo partly shown) [drawing 92] | – | – | – | > 1 | – |
| CC(CCC(=O)O)[C@H]1CCC2C3C[C@@H](O)[C@H]4C[C@@H](NCCCNCCCCNCCCN)CC[C@]4(C)C3CC[C@@]21C (stereo partly shown) | 4 (≈ 6.93 µM) | 16 (≈ 27.7 µM) | 16 (≈ 27.7 µM) | – | – |
| CC(CCC(=O)O)[C@H]1CCC2C3CC[C@@H]4C[C@H](NCCCNCCCCNCCCN)CC[C@]4(C)C3C[C@H](O)[C@@]21C (stereo partly shown) [drawing 73] | 4 (≈ 6.93 µM) | 8 to 16 (≈ 13.9 to 27.7 µM) | 4 (≈ 6.93 µM) | – | – |
| CC(C)CCCC(C)[C@H]1CCC2C3CC[C@H]4C[C@H](NCCCN5CCCCN=C5N)CC[C@]4(C)C3CC[C@@]21C (stereo partly shown) | – | – | – | > 10 | – |
| COC(=O)CCC(C)[C@H]1CCC2C3C(CC[C@@]21C)[C@@]1(C)CC[C@H](NCCCNCCCCNCCCN)C[C@H]1C[C@H]3O (stereo partly shown) [drawing 60] | 2 (≈ 3.38 µM) | 64 (≈ 108 µM) | 8 (≈ 13.5 µM) | – | – |
| COC(=O)CCC(C)[C@H]1CCC2C3CC[C@@H]4C[C@H](NCCN)CC[C@]4(C)C3C[C@H](O)[C@@]21C (stereo partly shown) [drawing 65] | 32 (≈ 71.3 µM) | 8 (≈ 17.8 µM) | 8 (≈ 17.8 µM) | – | – |
| COC(=O)CC[C@@H](C)[C@H]1CC[C@H]2[C@@H]3C[C@@H](O)[C@H]4C[C@H](NCCCNCCCCNCCCN)CC[C@]4(C)[C@H]3CC[C@]12C [Compound 465] | – | – | – | – | pharmacologic activity similar to that seen for FX 3 |
| CC(CCC(=O)O)[C@H]1CCC2C3C(CC[C@@]21C)[C@@]1(C)CC[C@@H](NCCCNCCCCN)CC1C[C@H]3O (single isomer, unassigned) | – | – | – | 0.01 | – |
| COC(=O)CC[C@@H](C)[C@H]1CC[C@H]2[C@@H]3CC[C@H]4C[C@@H](NCCCNCCCCNCCCN)CC[C@]4(C)[C@H]3CC[C@]12C [Compound 459] | – | – | – | – | pharmacologic activity similar to that seen for FX 3 |
| CC(C)CCCC(C)[C@H]1CCC2C3C(CC[C@@]21C)[C@@]1(C)CC[C@@H](NCCCNCCCCN)C[C@@H]1C[C@H]3O (stereo partly shown) [drawing 56] | 2 (≈ 3.76 µM) | 32 (≈ 60.2 µM) | 4 (≈ 7.52 µM) | – | – |
| CC(C)CCC[C@@H](C)[C@H]1CC[C@H]2[C@@H]3[C@H](O)C[C@H]4C[C@@H](NCCCNCCCCN)CC[C@]4(C)[C@H]3CC[C@]12C [Compound 371] | – | – | – | – | effects like those produced by compound 1436 |
| CC(CCC(CO)(OS(=O)(=O)O)C(C)C)[C@H]1CCC2C3C(CC[C@@]21C)[C@@]1(C)CC[C@H](NCCCNCCCCN)C[C@@H]1C[C@H]3O (stereo partly shown) | – | – | – | > 1 | – |
| COC(=O)CCC(C)[C@H]1CCC2C3C[C@@H](O)[C@H]4C[C@H](NCCCNCCCCNCCCN)CC[C@]4(C)C3CC[C@@]21C (stereo partly shown) | 4 (≈ 6.77 µM) | 32 (≈ 54.2 µM) | 2 to 4 (≈ 3.38 to 6.77 µM) | – | – |
| CC(CCC(=O)O)[C@H]1CCC2C3C(CC[C@@]21C)[C@@]1(C)CC[C@@H](NCCN)C[C@H]1C[C@H]3O (stereo partly shown) | 64 (≈ 147 µM) | 64 (≈ 147 µM) | 32 (≈ 73.6 µM) | – | – |
| CC(CCC(=O)O)[C@H]1CCC2C3CC[C@@H]4C[C@H](NCCCNCCCCNCCCN)CC[C@]4(C)C3C[C@H](O)[C@@]21C (stereo partly shown) [drawing 107] | – | – | – | > 1 | – |

— patent US5792635A, “Method of inhibiting the sodium/proton exchanger NHE3 and method of inhibiting growth by administering squalamine” (priority 1995, dated 1998)
